One test has as its system wheat scutellar tissues. The test is described as follows: Recovery of transgenic wheat lines and plant escapes after particle bombardment, with 100 μM copper in regeneration medium. Type of test: cell-based.
Test [1] relates to callus cultures in hexaploid wheat. The following applies: cited from earlier work.
Test [2] has as its system wheat embryogenic calluses induced from scutellar tissues. The test is described as follows: Shoot regeneration from embryogenic calluses on RZ regeneration medium supplemented with CuSO4. The following applies: for optimum range of copper concentration: number of plants regenerated per callus. It counts as cell-based. The procedure:
The primary culture explants were immature embryos or scutella. Wheat caryopses containing early-medium milk-stage grains with translucent embryos were harvested and surface-sterilised in 70% ethanol for 5 min and 0.5% hypochlorite solution for 15 min. Under aseptic conditions, embryos of approximately 0.5-1.0 mm length were isolated and either cultured entirely or the embryo axes were removed to produce isolated scutella. Thirty embryos/scutella were placed in the center (18 mm target circle) of a 90 mm Petri dish containing callus induction medium. The callus induction medium for embryos/scutellar tissues, called MD0.5, consisted of solidified (0.5% […], Sigma A3301) modified MS medium supplemented with 9% sucrose, 10 mg l^-1 AgNO3 and 0.5 mg l^-1 2,4-D (Rasco-Gaunt et al., 2001 J. Exp. Bot. 52 (357): 865-874). Embryos/scutella were placed with the embryo-axis side in contact with the medium. Cultures were incubated at 25±1° C. in darkness for approximately 24 hr before bombardment. Embryogenic calluses were transferred, for regeneration, to RZ regeneration medium and cultured under 12 h light (250 μE s^-1 m^-2, from cool white fluorescent tubes) at 25+1° C. for three weeks. The RZ regeneration medium, contained L salts, vitamins and myo-inositol, 3% w/v maltose, 0.1 mg l^-1 2,4-D and 5 mg l^-1 zeatin (Rasco-Gaunt and Barcelo, 1999 Plant Cell Culture Protocols. Methods in Molecular Biology series. Hall, RD ed. 111: 71-81, Humana Press, Totowa NJ) and CuSO4 at concentrations ranging from 0 to 1000 μM. The supplementation of silver nitrate in the range of 1-20 mg l^-1 is optional. Selection agents such as 2-6 mg l^-1 Glufosinate ammonium (Greyhound, United Kingdom) and 10-500 ppm sulfonylurea herbicide e.g. Nicosulfuron (DuPont, France) and Rimsulfuron (DuPont, France) were incorporated in RZ regeneration medium. A second three-week culture passage on the same medium was performed as required, with or without a selection agent. Following culture on RZ regeneration medium, plantlets were cultured for one or two three-week passages on R0 medium (RZ without hormones, AgNO3 and CuSO4 supplementation), with or without the selection agent. To determine the effects of increased copper concentration on shoot regeneration, embryogenic calluses were subcultured onto RZ regeneration medium (see Example 1) supplemented with CuSO4 at concentrations ranging from 0 to 1000 μM. Prior to transfer onto RZ regeneration medium, calluses were induced from scutellar tissues. Procedures for the growth of donor plant materials, isolation of explants and culture initiation are described in Example 1. Following culture on CuSO4 medium, the calluses were transferred to R0 medium (see Example 1). After three weeks, regeneration frequencies of calluses, average number of plant per callus, as well as shoot quality were noted. Regeneration frequency is calculated as the number of shoot-producing calluses divided by the total number of scutella isolated. Percent (%) regeneration is […] multiplied by 100.

Test [3] relates to cultures of the anther of tetraploid (pasta) wheat. The following applies: cited from earlier work.
Where [4] appears, read: 100 μM copper, PPT selection, different genotypes (Example 4).

Where two headings read alike, the source gives them in different places.

As for `O=S(=O)([O-])[O-].[Cu+2]` [CuSO4], in the test with wheat scutellar tissues (100 μM CuSO4, Cadenza and NH535, PPT and sulfonylurea selection systems), the transformation frequency entry is recorded as “improved”. Besides, the “frequency of plant escapes” value in the test with wheat scutellar tissues (setting [4]) is listed as “did not have an important effect”. Also, the “recovery of transformants / transformation efficiencies” value with wheat scutellar tissues (setting [4]) is listed as “improved”. Further, the plant escape frequency entry with wheat scutellar tissues (100 μM copper, plasmid pHP8092, PPT selection, varieties Cadenza and NH535) was “slightly higher”. The plant escapes result with wheat scutellar tissues (100 μM copper, variety Cadenza, PPT selection, constructs p15629 and pAHC20) is “clear reduction”. The escape frequency result in the test on wheat scutellar tissues (100 μM copper, variety NH535, sulfonylurea selection, construct pML146) is on record as “higher”. The “regeneration rates relative to original MS copper level (0.1 μM)” value in test [1] (10 μM CuSO4, Purnhauser 1991) is recorded as “eight times higher”. Moreover, the “optimum Cu level” value in test [1] ("more detailed" studies cited in Purnhauser 1991) was 2 µM; in test [1] (Purnhauser 1991 study) it was 10 µM. The “maximum regeneration frequency achieved” value in test [1] (optimum 10 μM Cu, single breeding line, Purnhauser 1991) is 59%. In addition, the shoot quality entry in test [2] (copper levels up to 500 μM, Riband and Imp, versus control 0.1 μM copper) was “vigorous and prolific”. Further, the results for the “optimum range of copper concentration” value in test [2] (variety Eole) and in test [2] (variety NH535) were 100 to 150 µM and 100 to 200 µM, respectively. Further, the regeneration frequencies in test [2] (wheat variety Eole, CuSO4 levels up to 300 μM) is on record as 100%; in test [2] (wheat variety NH535, CuSO4 levels up to 300 μM), 100%. Besides, the Plant regeneration frequency in test [2] (wheat variety Imp, CuSO4 levels up to 300 μM) is recorded as 100%; in test [2] (wheat variety Riband, levels up to 500 μM CuSO4), 100%. Besides, the “effect on regeneration frequency” value in test [2] (while improving shoot quality) was “no negative effect”. Moreover, in test [3] (20 or 40 μM CuSO4, three of four genotypes), the “production of embryoid from anthers versus control treatment” value is given as “increased”. Further, the embryoid production entry in test [3] (fourth genotype, all levels tested (10, 20 or 40 μM)) was “reduced”. Also, the “production of green plants versus control media” value in test [3] (over the four genotypes, copper-containing media) is “lower”.
